Consider 13 molecules from ChEMBL document CHEMBL1201862, “PubChem BioAssay data set” (2004).

Test systems include KM-20L2; SNB-75; U-251; HCT-116; SN12C; SW-620; UACC-62; HL-60; SK-MEL-2; HOP-92; ACHN; SK-MEL-28; TK-10; UACC-257; UO-31; HCT-15.
What all share (test): DTP human tumour cell line panel, 48 h

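Compound exposure: 48 hours, 5 concentrations, 96-well plates. GI50: concentration for 50% inhibition of growth.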 Calls of active or inactive are those of the source. No stated cut-off is given here; in the data, active = GI50 up to about 1.1 µM and inactive = higher.

What is called GI50 is the concentration giving 50% growth inhibition. Regarding `N#Cc1cccc2c1Nc1ccccc1S2`, the GI50 was > 100 µM (inactive) with KM-20L2; 19.7 µM (inactive) with SNB-75; 92.7 µM (inactive) with U-251; > 100 µM (inactive) with HCT-116; > 100 µM (inactive) in the test on SN12C; > 100 µM (inactive) in the test on SW-620. The GI50 was 60.7 µM (inactive) in the test with UACC-62; > 100 µM (inactive) with HL-60; 87.1 µM (inactive) in the test with SK-MEL-2; 20.2 µM (inactive) in the test on HOP-92; > 100 µM (inactive) with ACHN; > 100 µM (inactive) in the test with SK-MEL-28. The GI50 with TK-10 is > 100 µM (inactive); in the test on UACC-257, > 100 µM (inactive); in the test on UO-31 it was > 100 µM (inactive); with HCT-15, > 100 µM.
Take `O=C(Nc1ccccc1C(=O)NC(=O)c1ccccc1NC(=O)c1ccccc1)c1ccccc1`: the GI50 was 3.15 µM (inactive) with KM-20L2; 2.83 µM (inactive) in the test on SNB-75; 3.49 µM (inactive) in the test on U-251; 3.45 µM (inactive) with HCT-116; 4.51 µM (inactive) with SN12C; 4.84 µM (inactive) in the test with SW-620. For the same molecule, the GI50 is 2.07 µM (inactive) in the test with UACC-62; 1.87 µM (inactive) with SK-MEL-2; 1.99 µM (inactive) with HOP-92; 17.9 µM (inactive) in the test on ACHN; 3.13 µM (inactive) in the test with SK-MEL-28; 10.9 µM (inactive) in the test with TK-10. In addition, the GI50 with UACC-257 is 1.86 µM (inactive); in the test with HCT-15, 16.9 µM.
With `COc1cc(Nc2cnc3cc(C(F)(F)F)ccc3n2)cc(OC)c1OC`, the GI50 in the test with KM-20L2, in the test with SNB-75, with U-251, in the test with HCT-116, with SN12C and in the test on SW-620 was > 100 µM (inactive) throughout. For the same molecule, the GI50 with UACC-62, in the test with HL-60, in the test with SK-MEL-2, in the test on HOP-92, with ACHN and in the test on SK-MEL-28 was > 100 µM (inactive) throughout. For the same molecule, the GI50 is > 100 µM (inactive) with TK-10, > 100 µM (inactive) in the test with UACC-257, > 100 µM (inactive) in the test with UO-31 and > 100 µM in the test with HCT-15.
On to `COc1c(I)c(OC)c2c(c1I)O[C@@H]1OCC[C@H]21`, for which the GI50 was 65.3 µM (inactive) in the test on KM-20L2; 27.2 µM (inactive) with SNB-75; 37.6 µM (inactive) in the test on U-251; 35.6 µM (inactive) in the test on HCT-116; 31.3 µM (inactive) with SN12C; 35 µM (inactive) in the test with SW-620. The GI50 was 32.5 µM (inactive) in the test with UACC-62; 17.3 µM (inactive) with HL-60; 19.9 µM (inactive) in the test on SK-MEL-2; 22.7 µM (inactive) in the test on HOP-92; 17.3 µM (inactive) in the test with ACHN; 34.2 µM (inactive) in the test on SK-MEL-28. Further, the GI50 with TK-10 was 40.6 µM (inactive); with UACC-257 it was 26.1 µM (inactive); in the test on UO-31, 22.4 µM (inactive); with HCT-15, 35.6 µM.
For the molecule `Cc1ccc(S(=O)(=O)NC(=O)C#CCOC2CCCCO2)cc1` (stereo not drawn), the GI50 with KM-20L2, in the test on SNB-75, in the test on U-251, with HCT-116, in the test with SN12C and with SW-620 was > 100 µM (inactive) in each case. Also, the GI50 in the test on UACC-62 was > 100 µM (inactive); with HL-60 it was > 100 µM (inactive); with SK-MEL-2 it was 82.8 µM (inactive); in the test on HOP-92 it was > 100 µM (inactive); with ACHN it was > 100 µM (inactive); with SK-MEL-28 it was > 100 µM (inactive). The GI50 in the test on TK-10 was > 100 µM (inactive); in the test with UACC-257 it was > 100 µM (inactive); with UO-31, > 100 µM (inactive); with HCT-15, > 100 µM.
Regarding `COC(=O)C(=C/c1ccc(OC)cc1)/C(C(=O)O)=C(/C)c1ccccc1`, the GI50 with KM-20L2, with SNB-75, in the test on U-251, in the test on HCT-116, with SN12C and with SW-620 was > 100 µM (inactive) each time. In addition, the GI50 with UACC-62, in the test with HL-60, with SK-MEL-2, in the test with HOP-92, in the test on ACHN and in the test with TK-10 was > 100 µM (inactive) each time. In addition, the GI50 with UACC-257 was > 100 µM (inactive); with UO-31 it was > 100 µM (inactive); in the test with HCT-15, > 100 µM.
Consider `COc1ccccc1NC(=O)NS(=O)(=O)c1ccccc1`, for which the GI50 with KM-20L2, in the test on SNB-75, in the test with U-251, with HCT-116, with SN12C and in the test on SW-620 was > 100 µM (inactive) each time. For the same molecule, the GI50 with HL-60 was > 100 µM (inactive); in the test on SK-MEL-2, > 100 µM (inactive); with HOP-92, > 100 µM (inactive); in the test with ACHN, 58.3 µM (inactive); in the test with SK-MEL-28, > 100 µM (inactive); in the test with TK-10 it was > 100 µM (inactive). In addition, the GI50 in the test with UACC-257 and with UO-31 was > 100 µM (inactive) each time.
For `Cc1ccccc1-n1c(CCl)nc2ccc(Br)cc2c1=O`, the GI50 was 17.8 µM (inactive) in the test with KM-20L2; 12.8 µM (inactive) in the test with SNB-75; 13.2 µM (inactive) with U-251; 9.53 µM (inactive) in the test on HCT-116; 0.434 µM (active) in the test with SN12C; 3.13 µM (inactive) in the test on SW-620. Further, the GI50 in the test with UACC-62 was 4.4 µM (inactive); with HL-60, 5.77 µM (inactive); with SK-MEL-2 it was 14.6 µM (inactive); in the test with HOP-92, 12.8 µM (inactive); in the test on ACHN it was 30.1 µM (inactive); with SK-MEL-28, 17.5 µM (inactive). The GI50 in the test on TK-10 is 24.7 µM (inactive); in the test on UACC-257 it was 14.8 µM (inactive); with UO-31, 14.9 µM (inactive); in the test on HCT-15, 3.59 µM.
As for `C#CC(C)(C)Oc1cc(O)c2c(=O)c3ccccc3n(C)c2c1`, the GI50 is > 100 µM (inactive) with KM-20L2; 40.4 µM (inactive) with SNB-75; 42.1 µM (inactive) in the test with U-251; > 100 µM (inactive) in the test on HCT-116; > 100 µM (inactive) in the test on SN12C; > 100 µM (inactive) in the test on UACC-62. Also, the GI50 in the test with HL-60 was > 100 µM (inactive); in the test on SK-MEL-2, > 100 µM (inactive); in the test on HOP-92, > 100 µM (inactive); with ACHN it was 86.1 µM (inactive); in the test with SK-MEL-28, > 100 µM (inactive); with TK-10, > 100 µM (inactive). Also, the GI50 is > 100 µM (inactive) in the test on UACC-257, > 100 µM (inactive) with UO-31 and > 100 µM in the test on HCT-15.
Regarding `CCCCOC(=O)NC(=O)c1cn(CCCOC(=O)CCCCCCCCC(=O)OCCCn2cc(C(=O)NC(=O)OCCCC)c(=O)[nH]c2=O)c(=O)[nH]c1=O`, the GI50 with KM-20L2, in the test on U-251, with HCT-116, in the test on SN12C, in the test with SW-620 and in the test with UACC-62 was > 100 µM (inactive) throughout. Moreover, the GI50 in the test on HL-60, with SK-MEL-2, in the test with HOP-92, with ACHN, in the test on SK-MEL-28 and in the test with TK-10 was > 100 µM (inactive) each time. The GI50 in the test with UACC-257 is > 100 µM (inactive); with UO-31 it was > 100 µM (inactive); with HCT-15, > 100 µM.
Consider `C=C1C(=O)OC2C/C(C)=C/CC/C(C)=C/CCC3(COC(C)=O)OC3CC12` (stereo not drawn), for which the GI50 with KM-20L2 was 6.93 µM (inactive); with SNB-75, 11.6 µM (inactive); in the test on U-251 it was 11.2 µM (inactive); with HCT-116 it was 1.84 µM (inactive); in the test with SN12C, 15.6 µM (inactive); in the test with SW-620 it was 2.04 µM (inactive). Also, the GI50 in the test on UACC-62 is 11.8 µM (inactive); with HL-60, 2.21 µM (inactive); with SK-MEL-2, 3.33 µM (inactive); in the test with ACHN, 14.1 µM (inactive); in the test with SK-MEL-28 it was 11.1 µM (inactive); in the test with TK-10, 7.14 µM (inactive). For the same molecule, the figures for the GI50 in the test on UACC-257, in the test on UO-31 and in the test on HCT-15 were 15.4 µM (inactive), 12.7 µM (inactive) and 2.81 µM, respectively.
Turning to `CC1=C(C(=O)NCc2ccccc2)C(/C=C/c2ccccc2)C(C(=O)NCc2ccccc2)=C(C)N1`, the GI50 in the test on KM-20L2 was > 100 µM (inactive); in the test with SNB-75, 85.9 µM (inactive); in the test with HCT-116, > 100 µM (inactive); in the test on SN12C, > 100 µM (inactive); in the test with SW-620, > 100 µM (inactive); with UACC-62 it was > 100 µM (inactive). The GI50 in the test on HL-60, in the test on SK-MEL-2, in the test with HOP-92, in the test with ACHN, in the test with SK-MEL-28 and in the test with TK-10 was > 100 µM (inactive) throughout. Further, the GI50 in the test with UACC-257 is > 100 µM (inactive); in the test on UO-31, > 100 µM (inactive); in the test with HCT-15, > 100 µM.
Regarding `COc1ccc2c(c1)[n+]([O-])c(/C(C)=N/NC(=O)c1ccccc1O)c(C)[n+]2[O-]`, the GI50 with KM-20L2, in the test with U-251, in the test on HCT-116, with SN12C, with SW-620 and in the test on UACC-62 was > 100 µM (inactive) each time. The GI50 in the test on HL-60, with SK-MEL-2, in the test with HOP-92, in the test with ACHN, in the test on SK-MEL-28 and in the test with TK-10 was > 100 µM (inactive) in each case. Further, the GI50 is > 100 µM (inactive) in the test on UACC-257, > 100 µM (inactive) in the test on UO-31 and > 100 µM in the test with HCT-15.
